Test [1] concerns NALM-6 B-lineage ALL cells. Briefly: Clonogenic assay, NALM-6. Type of test: cell-based, human. As to conditions: 7 days; for inhibition at 0.001 µM / inhibition at 0.01 µM / inhibition at 0.1 µM: Homo sapiens, 168 h, read-out: Inhibition of clonogenic growth. How it is done:
(§1) The growth-inhibiting activity of the synthetic Phorboxazole A and the synthesized derivatives was tested in clonogenic assays. Cancer cells were treated with 1 nM, 10 nM, and 100 nM doses of synthetic Phorboxazole A or derivatives of phorboxazole A. Treated cells included U373 human glioblastoma cells, NALM-6, human B-lineage acute lymphoblastic leukemia cells, and BT-20 human breast cancer cells. The cancer cells were resuspended in clonogenic medium consisting of alpha-MEM supplemented with 0.9% methylcellulose, 30% fetal bovine serum, and 50 μM 2-mercaptoethanol. Cells were plated in duplicate Petri dishes at 100,000 cells/mL/dish and cultured in a humidified 5% CO2 incubator for 7 days. Cancer cell colonies were enumerated on a grid using an inverted phase microscope of high optical resolution. Results were expressed as % inhibition of clonogenic cells at a particular concentration of the test agent using the formula:
(§2) % Inhibition=(1−Mean # of colonies [Test]/Mean # of colonies [Control]×100.

The subject of test [2] is NALM-6 human B-lineage acute lymphoblastic leukemia cells. The test can be described thus: MTT cytotoxicity assay, NALM-6. Type of test: cell-based. As to conditions: NALM-6 (leukemia, ALL), 24-36 hours, read-out: IC50 [MTT]. How it is done:
(§3) The cytotoxicity assay of synthetic Phorboxazole A and various derivative compounds against human tumor cells was performed using the MTT (3-[4,5-dimethylthiazol-2-yl]-2,5-diphenyl tetrazolium bromide) assay (Boehringer Mannheim Corp., Indianapolis, Ind.). Briefly, exponentially growing brain tumor cells were seeded into a 96-well plate at a density of 2.5×10^4 cells/well and incubated for 36 hours at 37° C. prior to drug exposure. On the day of treatment, culture medium was carefully aspirated from the wells and replaced with fresh medium containing the various phorboxazole A derivative compounds as well as the tyrosine kinase inhibitory isoflavone genistein (GEN) at concentrations ranging from 0.1 to 250 μM. Triplicate wells were used for each treatment.
(§4) Human glioblastoma cells U373 (brain cancer), human B-lineage acute lymphoblastic leukemia cells NALM-6, and human breast cancer cells BT-20 were obtained from American Type Culture Collection (Rockville, Md.) and maintained as a continuous cell line in Dulbecco's modified Eagles's medium supplemented with 10% fetal bovine serum and antibiotics.
(§5) The cells were incubated with the various compounds for 24-36 hours at 37° C. in a humidified 5% CO2 atmosphere. To each well, 10 μl of MTT (0.5 mg/ml final concentration) was added and the plates were incubated at 37° C. for 4 hours to allow MTT to form formazan crystals by reacting with metabolically active cells. The fonnazan crystals were solubilized overnight at 37° C. in a solution containing 10% SDS in 0.01 M HCl. The absorbance of each well was measured in a microplate reader (Labsystems) at 540 nm and a reference wavelength of 690 nm. To translate the OD540 values into the number of live cells in each well, the OD540 values were compared to those on standard OD540-versus-cell number curves generated for each cell line. The percent survival was calculated using the formula: [formula]
(§6) The IC50 values were calculated by non-linear regression analysis.
On the technique in general: Tetrazolium assays rely on reduction of a dye to a coloured formazan, in cell work by metabolically active cells.

Test [3] relates to BT-20 human breast cancer cells. Briefly: Clonogenic assay, BT-20. Type of test: cell-based. As to conditions: 7 days; for inhibition at 0.001 µM / inhibition at 0.01 µM / inhibition at 0.1 µM: Homo sapiens, 168 h, read-out: Inhibition of clonogenic growth. How it is done: as §1, §2
The test system of the next test is leukemia NALM-6 cells. Briefly: Mitochondrial transmembrane potential assay (DiIC1(5) staining). Type of test: cell-based, human. As to conditions: 2.5 nM, 5 nM or 10 nM, 72 hours. How it is done:
FIG. 2 are graphs showing the effect of synthetic phorboxazole A and phorboxazole A derivatives on the mitochondrial transmembrane potentials of leukemia NALM-6 cells.
Cells were incubated with 2.5 nM, 5 nM or 10 nM of phorboxazole A, 33-O-methyl-phorboxazole A or 45,46-dehydrobromo-phorboxazole A for 72 hours, stained with DiICl (5) to assess the mitochondrial membrane potential (Δψm) and then analyzed with a cell sorter equipped with a HeNe laser.

For test [4], the system named is U373 human glioblastoma cells. Briefly: MTT cytotoxicity assay, U373. Type of test: cell-based. As to conditions: U373 MG, U373 (brain tumor, glioblastoma), 24-36 hours, read-out: IC50 [MTT]. The method, then: as §3, §4, §5, §6
For test [5], the system named is BT-20 human breast cancer cells. Briefly: MTT cytotoxicity assay, BT-20. As to conditions: BT-20 (breast cancer), 24-36 hours, read-out: IC50 [MTT]. Type of test: cell-based. How it is done:
as §3, §4, §5, §6

Test [6] deals with human breast cancer cell line BT-20. The test can be described thus: In situ detection of apoptosis (nick-end-labeling, confocal microscopy). Type of test: cell-based. As to conditions: final concentration of 100 μM, 24 hours. How it is done: The synthetic Phorboxazole A and the synthetic analogs were also assayed for apoptosis-inducing activity. Assay for apoptosis was performed by the in situ nick-end-labeling method using an ApopTag in situ detection kit (Oncor, Gaithersburg, Md.) according to the manufacturer's reconmmendations. Immunofluorescence was used to examine the morphologic features of human breast cancer cell line BT-20 (American Type Culture Collection Rockville, Md.) treated with the novel phorboxazole A derivatives of the present invention.
Cells were trypsinized from rapidly growing tissue culture flasks and seeded onto sterile 22 mm^2 coverslips in 6-well culture plates. Cells on coverslips were returned to the incubator for 24 hours prior to treatment. The phorboxazole A derivatives were added to the cells from a stock solution made in DMSO to a final concentration of 100 μM. Final DMSO concentration were kept at 0.1% in both test samples and controls. Cells were returned to a 37° C. incubation for 24 hours before further processing. At 24 hours, coverslips were fixed in −20° C. methanol for 15 minutes followed by a 15 minute incubation in phosphate buffered saline +0.1% Triton X-100 (PBS-Tx). Coverslips were then incubated with a monoclonal antibody against α-tubulin (Sigma Chemical Co., St. Louis, Mo.) at a dilution of 1:1000 for 40 minutes in a humidified chamber at 37° C. Coverslips were washed for 15 minutes in PBS-Tx followed by a 40 minute incubation with goat anti-mouse IgG antibody conjugated to FITC (Amersham Corp., Arlington Heights, Ill.). The coverslips were again rinsed in PBS-Tx and incubated with 5 μM TOTO-3 (Molecular Probes, Eugene, Oreg.) for 20 minutes to label the nuclear DNA. Coverslips were immediately inverted onto slides in Vectashield (Vector Labs, Burlingame) to prevent photobleaching, sealed with nail varnish and stored at 4° C.
Slides were examined using a Bio-Rad MRC-1024 Laser Scanning Confocal Microscope mounted on a Nikon Eclipse E800 upright microscope with high numerical aperture objectives. […]

In test [7] the test system is U373 glioblastoma spheroids. The test can be described thus: Cell migration from glioblastoma spheroids. Type of test: cell-based, human. As to conditions: U373 spheroids on fibronectin-coated coverslips; 48 hours; varied concentrations. The method, then: U373 glioblastoma spheroids of 200 to 400 micrometers in diameter were treated with synthetic Phorboxazole A, 33-O-Methyl-phorboxazole A, and 45,46-dehydrobromo-phorboxazole A in 0.1% DMSO at varied concentrations. Cells were incubated with the inhibitor or with control DMSO in the absence of inhibitor compound for two hours, and then transferred to fibronectin-coated coverslips. The spheroids were then incubated in DMEM containing […] at 37° C. for 48 hours.
In addition, multi-cellular U373 glioblastoma spheroids of 200-400 μm diameter were incubated with 500 nM, 250 nM, 125 nM, 62.5 nM and […] phorboxazoleA, 29-phorboxamide A, 18-methyl phorboxylate and 31-methyl phorboxylate in 0.1% DMSO or 0.1% DMSO alone for 2 hours and transferred to fibronectin-coated coverslips. The spheroids were then incubated in MEM containing respective compounds and cultured for 48 hours at 37° C. At the end of incubation, the spheroids were fixed and stained with Hema-3 solutions. The distance of migrated cells from spheroids was measured using a mircoscope and micrometer.

Test [8] has as its system U373 human glioblastoma cells. The test can be described thus: Clonogenic assay, U373. The test is classed as cell-based. As to conditions: 7 days; for inhibition at 0.01 µM / inhibition at 0.1 µM: Homo sapiens, U373 MG, 168 h, read-out: Inhibition of clonogenic growth. How it is done: as §1, §2

For orientation: inhibition means the percentage by which the read-out fell short of the control. For orientation: IC50 means the concentration at which inhibition is half-maximal.

With `C#CC[C@H](/C=C/C(C)=C/[C@@H](O)[C@H]1C[C@@H](OC)C[C@@](O)(Cc2nc(/C=C(\C)[C@@H]3O[C@@H]4C/C=C/c5nc(co5)[C@H]5C[C@H](O)C[C@@H](C[C@H]6CC(=C)C[C@H](C/C=C\C(=O)O[C@@H]([C@H]4C)[C@H]3C)O6)O5)co2)O1)OC` [Compound 8, 45,46-Dehydrobromo-Phorboxazole A], the “Mean Number Colonies/10^4 cells” value in [1] (1 nM) came to 2116; in [1] (10 nM) it was 293; in test [1] (100 nM), 0; in test [3] (1 nM), 1540; in [3] (10 nM), 1062; in test [3] (100 nM), 0. The “Mean Number Colonies/10^4 cells” value in test [8] (10 nM) stood at 586; in [8] (100 nM) it was 144. For the same molecule, the inhibition at 0.001 µM in test [1] (1 nM) and in [3] (1 nM) was 0% in each case. Besides, the inhibition at 0.01 µM in test [1] (10 nM) was 85.7%; in test [3] (10 nM), 30.3%; in test [8] (10 nM), 10.7%. Also, the figures for the inhibition at 0.1 µM in test [1] (100 nM), in [3] (100 nM) and in test [8] (100 nM) were over 99.9%, over 99.9% and 78.1%, respectively. In addition, the 50% inhibitory concentration (IC50) in test [2] turned out to be 4.8 nM; in [4], 27.4 nM; in test [5], 12.6 nM. The “Depolarized mitochondria (mitochondrial membrane potential)” value in the test with leukemia NALM-6 cells is given as “progressive increase in depolarized mitochondria”. In addition, the Apoptosis-inducing activity result in test [6] was “apoptotic activity”. Besides, the “Inhibition of cell migration from the spheroid” value in [7] is reported as “significantly inhibited cell migration”.

For `C=C1C[C@@H]2C[C@@H]3C[C@@H](O)C[C@@H](O3)c3coc(n3)/C=C/C[C@H]3O[C@@H](/C(C)=C/c4coc(C[C@]5(OC)C[C@H](OC)C[C@H]([C@H](O)/C=C(C)/C=C/[C@@H](C/C=C/Br)OC)O5)n4)[C@H](C)[C@@H](OC(=O)/C=C\C[C@@H](C1)O2)[C@H]3C` [Compound 9, 33-O-methyl-Phorboxazole A], the “Mean Number Colonies/10^4 cells” value in [1] (1 nM) worked out at 1760; in test [1] (10 nM), 422; in test [1] (100 nM), 0; in [3] (1 nM), 1824; in test [3] (10 nM), 1430; in test [3] (100 nM) it was 0. For the same molecule, the “Mean Number Colonies/10^4 cells” value in [8] (10 nM) is listed as 578; in test [8] (100 nM), 0. The inhibition at 0.001 µM was determined as 14% in test [1] (1 nM) and 0% in test [3] (1 nM). The figures for the inhibition at 0.01 µM in test [1] (10 nM), in [3] (10 nM) and in test [8] (10 nM) were 79.4%, 6.2% and 11.9%, respectively. Also, the inhibition at 0.1 µM in test [1] (100 nM) was over 99.9%; in [3] (100 nM), over 99.9%; in test [8] (100 nM), over 99.8%. Moreover, the 50% inhibitory concentration (IC50) in test [2] amounted to 5.2 nM; in [4], 29.2 nM; in [5] it was 11.3 nM. The “Depolarized mitochondria (mitochondrial membrane potential)” value in the test with leukemia NALM-6 cells is given as “progressive increase in depolarized mitochondria”. For the same molecule, the Apoptosis-inducing activity entry in test [6] was “apoptotic activity”. For the same molecule, the “Inhibition of cell migration from the spheroid” value in test [7] is “significantly inhibited cell migration”.

(Values after patent publication US6797721B2, “Phorboxazole derivatives for treating cancer” (Parker Hughes Institute, priority 1999, dated 2004).)
